The experiment has as its target T1, PepS (Shewanella sp. E525-6, UniProt A0A140CQI1).
T1 construct: mature N-terminus L17-T-A-C-N21 (16-residue signal peptide removed)
T1 sequence (A0A140CQI1 17-694): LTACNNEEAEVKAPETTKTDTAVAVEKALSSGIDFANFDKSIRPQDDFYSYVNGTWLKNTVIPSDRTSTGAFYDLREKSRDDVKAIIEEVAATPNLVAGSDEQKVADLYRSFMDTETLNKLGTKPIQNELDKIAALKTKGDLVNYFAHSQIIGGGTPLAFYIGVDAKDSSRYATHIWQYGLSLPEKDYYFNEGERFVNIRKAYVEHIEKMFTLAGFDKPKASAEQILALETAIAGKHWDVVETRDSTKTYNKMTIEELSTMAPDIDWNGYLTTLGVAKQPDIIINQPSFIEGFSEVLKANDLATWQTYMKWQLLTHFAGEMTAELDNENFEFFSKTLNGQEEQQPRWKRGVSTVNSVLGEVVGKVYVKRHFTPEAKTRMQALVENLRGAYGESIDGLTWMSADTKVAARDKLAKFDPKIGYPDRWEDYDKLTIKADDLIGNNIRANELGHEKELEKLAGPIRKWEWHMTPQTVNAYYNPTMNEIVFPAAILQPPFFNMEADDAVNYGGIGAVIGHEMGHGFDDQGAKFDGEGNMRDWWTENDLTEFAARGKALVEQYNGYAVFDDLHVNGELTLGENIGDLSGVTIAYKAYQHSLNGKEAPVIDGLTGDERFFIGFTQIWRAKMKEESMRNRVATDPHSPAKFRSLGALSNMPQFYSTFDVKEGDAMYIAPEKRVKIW
Description: residual peptidase activity, HPLC of product FSP. The class given is biochemical. From the text: residual peptidase activity, HPLC of product FSP on PepS

We go through 1 compound from article PMC4701951, “Characterization of a New M13 Metallopeptidase from Deep-Sea Shewanella sp. E525-6 and Mechanistic Insight into Its Catalysis” (Frontiers in Microbiology, 2016).

`CC(C)C[C@H](NP(=O)(O)O[C@@H]1O[C@@H](C)[C@H](O)[C@@H](O)[C@H]1O)C(=O)N[C@@H](Cc1c[nH]c2ccccc12)C(=O)O` [Phosphoramidon]: the remaining activity (usually what remains of the control signal, in per cent) at 10 µM was 4.3 ± 0.4%.
